The results in this text go back to patent US9526248B2 (Rohm and Haas Company, priority 2012, dated 2016).

One experiment concerns Chlorella sp. ATCC 7516. The experiment in a line: Algal efficacy test of dry paint films (modified ASTM 5589, 6-well plates). Type of experiment: cell-based. Conditions: for inhibition at 5000 ppm: 504 h; for Total conc: total biocide concentration in paint at which the % inhibition is reported, pass level ≥75% inhibition, single actives: maximum concentration tested, no pass. As to the method:
(§1) These paints were then diluted with an antimicrobial free acrylic/silicone based paint and mixed to prepare targeted concentrations of antimicrobial compounds for the testing. The total biocides concentrations tested were 125, 250, 500, 1000, 2000 and 5000 ppm. After biocides addition or dilution, the paints were mixed 90 seconds with the horse power shaker (AXEL 75M3372/Agitateur 50-10MI) until uniformity was achieved. Paints containing different antimicrobial compounds at the same levels were mixed together in order to obtain the desired ratio of antimicrobial compounds. After one day, the paints were applied to Schleicher & Schuell filter paper at 280 μm wet film thickness and dried for 3 days at room temperature avoiding direct exposure to sunlight. Square discs (1.6 cm×1.6 cm) were cut out from each panel and were used as the substrate for algal efficacy tests. This sample size allowed for an agar border when the sample disc was placed into the well of the test plate.
(§2) Algal efficacy was tested according to modified ASTM 5589 which is a standard accelerated test method for determining resistance of various coatings (including paints) to algal defacement. To accommodate for high-throughput screening, this method was scaled down from petri dishes to 6-well plates. Bold Modified Basal Freshwater Nutrient Solution was used as growth medium. A single coated filter paper coupon was placed with a pair of sterile forceps at the center of the agar plug (on top) with the painted surface facing upwards. Algal inoculums were prepared by mixing equal concentrations (1×10^6 cfu/ml) and equal volumes of exponentially growing algae cultures.
(§3) Each well that contains a tested coupon was inoculated with 1750 μl of algal suspensions (1×10^6 cfu/ml) making sure that the whole surface (paint film as well as the agar surrounding it) was evenly covered. The plates were incubated at room temp (21° C.-25° C.) with cyclic exposure to light and dark phases, for a period of three weeks.
(§4) At the end of the three week incubation period, the samples were scored for percent inhibition regarding visible algal growth compared to the blank sample (0% inhibition).
(§5) The SI is calculated based on F. C. Kull et.
(§6) SI value of <1 in the formula indicates a synergism of the blended biocides exists.
(§7) The minimal targeted inhibition was set at 75%, meaning a coupon with at least 75% algal growth inhibition was considered as a pass.

In experiment [1] the test system is Stichococcus bacillaris SAG 379-1a / CCAP 379/1a. Described as above. Type of experiment: cell-based. Conditions: for inhibition at 5000 ppm: Stichococcus bacillaris, 504 h; for Total conc: total biocide concentration in paint at which the % inhibition is reported, pass level ≥75% inhibition, single actives: maximum concentration tested, no pass. As to the method: as §1, §2, §3, §4, §5, §6, §7

Like-named read-outs stand apart in the source and are kept apart here.

As for `O=c1[nH]c2c(c(=O)n1C1CCCCC1)CCC2` [Lenacil, 3-cyclohexyl-1,5,6,7-tetrahydrocyclopentapyrimidine-2,4(3H)-dione], the inhibition at 5000 ppm with Chlorella sp. ATCC 7516 was determined as 30%; in experiment [1] it was 70%. Also, the Total conc in the experiment with Chlorella sp. ATCC 7516 (3 weeks) was found to be 5000 ppm; in experiment [1] (Stichococcus, 3 weeks), 5000 ppm.
For the compound `CCNc1nc(NC(C)(C)C)nc(SC)n1` [Terbutryn, N^2-tert-butyl-N^4-ethyl-6-methylthio-1,3,5-triazine-2,4-diamine], the inhibition at 5000 ppm came to 65% with Chlorella sp. ATCC 7516 (total conc 5000 ppm in paint, visible algal growth vs blank, 3 weeks, read-out: % inhibition) and 35% in experiment [1] (Stichococcus, total conc 5000 ppm in paint, visible algal growth vs blank, 3 weeks, read-out: % inhibition). For the same compound, the Total conc is recorded as 5000 ppm with Chlorella sp. ATCC 7516 (3 weeks) and 5000 ppm in experiment [1] (Stichococcus, 3 weeks).
